Reference: PMC11724075, “Small-molecule-induced ERBB4 activation to treat heart failure” (Nature Communications, 2025)
“And” between values parts separate entries of the source, which are not always exact repeats. Equal values may be shown once.

Biological target: T1, ERBB4/ERBB4 (Homo sapiens, UniProt Q15303)
T1 construct: host or cells: U2OS (osteosarcoma cells), PathHunter engineered line
Assay: PathHunter U2OS ERBB4/ERBB4 dimerization assay, 96-well dose-response
Type: cell-based
Conditions: for ERBB4/ERBB4 dimerization signal: relative to signal with 0.1 µM NRG1, single biological replicates
Procedure: PathHunter U2OS ERBB4/ERBB4 (osteosarcoma cells; Eurofins, 93-0961C3), U2OS ERBB2/ERBB4 (osteosarcoma cells; Eurofins, 493-0960C3), ERBB2/ERBB3 (osteosarcoma cells; Eurofins, 93-1042C3) and ERBB1/ERBB1 (osteosarcoma cells; Eurofins, 93-0989C3) dimerization cell lines were cultured according to the manufacturer’s instructions. Briefly, cells were cultured in Cell Culture Reagent 103 (Eurofins, 92-3103 G) supplemented with 250 µg/mL Hygromycin B (Eurofins, 92-0029) and 500 µg/mL G418 (Eurofins, 92-0030), and were maintained at 37 °C in humidified atmosphere of 5% CO2. HCFs (Innoprot, P10454) were cultured in fibroblast medium (Innoprot, P60108) supplemented with 10% (v/v) fetal bovine serum (FBS, Innoprot), 10% (v/v) fibroblast growth supplement (Innoprot), and 1% (v/v) penicillin/streptomycin solution (Innoprot). iAMs[33] (kindly provided by LUMC) were cultured in Advanced DMEM F-12 (Thermo Fisher Scientific, 12634028) supplemented with 2% (v/v) heat-inactivated FBS (Thermo Fisher Scientific, 10270106), 1% (v/v) penicillin/streptomycin (10,000 units/mL and 10 mg/mL respectively, Thermo Fisher Scientific, 15140122), 1× GlutaMAX (Thermo Fisher Scientific, 35050061), and 100 ng/mL doxycycline (Tocris, 4090) for proliferation. To induce differentiation, iAMs were transferred to medium without doxycycline.
U2OS ERBB4/ERBB4 dimerization cells were seeded at a density of 5 × 10^4 cells/well in 100 µL Cell Plating 0 Reagent, in white 96-well plates (PerkinElmer, 6005680) and incubated for 24 h at 37 °C, 5% CO2. […] Next, 110 µL PathHunter Flash Detection Reagent was added to each well and incubated at RT for 1 h after which the luminescence signal was measured using the Luminoskan Ascent (Thermo Fisher Scientific). […] The same experimental set-up was used for the U2OS ERBB2/ERBB4, U2OS ERBB2/ERBB3 and U2OS ERBB1/ERBB1 dimerization cell lines.
Category Parameter Description
Assay Type of assay PathHunter Dimerization assays provide a robust, highly sensitive and easy-to-use cell-based functional assay to study various protein activities in a cell. The assay s use
Enzyme Fragment Complementation technology, where the b-galactosidase (b-gal) enzyme is split into two fragments, ProLink and Enzyme Acceptor. Independently these fragments have no b-gal activity. However, when forced to complement through protein-protein interactions, they form an active b-gal enzyme. The PathHunter Dimerization assay detects ligand induced dimerization of two subunits of a receptor-dimer pair. The cells have been engineered to co-express one receptor subunit (ERBB4) fused to Enzyme
Donor, and a second dimer partner (ERBB4) fused to Enzyme Acceptor. Binding of an agonist to one receptor subunit induces it to interact with its dimer partner, forcing complementation of the two enzyme […]
functional enzyme that hydrolyzes a substrate to generate a chemiluminescent signal.
Target ErbB4 receptor (RTK receptor)
Primary measurement Detection of chemiluminescent signal, induced by small-molecule ErbB4 agonists
Key reagents PathHunter Dimerization ErbB4/ErbB4 Cell
Line (93-0961C3) - PathHunter Flash
Detection Kit (03 -0247) - AssayComplete Cell
AssayComplete Cell Detachment Reagent
(92-0009) - AssayComplete Thawing Reagent
T3 (92-4103TR) - AssayComplete Freezing
Assay protocol https://www.discoverx.com/catalog/pathhun

T1 sequence (Q15303 26-1308): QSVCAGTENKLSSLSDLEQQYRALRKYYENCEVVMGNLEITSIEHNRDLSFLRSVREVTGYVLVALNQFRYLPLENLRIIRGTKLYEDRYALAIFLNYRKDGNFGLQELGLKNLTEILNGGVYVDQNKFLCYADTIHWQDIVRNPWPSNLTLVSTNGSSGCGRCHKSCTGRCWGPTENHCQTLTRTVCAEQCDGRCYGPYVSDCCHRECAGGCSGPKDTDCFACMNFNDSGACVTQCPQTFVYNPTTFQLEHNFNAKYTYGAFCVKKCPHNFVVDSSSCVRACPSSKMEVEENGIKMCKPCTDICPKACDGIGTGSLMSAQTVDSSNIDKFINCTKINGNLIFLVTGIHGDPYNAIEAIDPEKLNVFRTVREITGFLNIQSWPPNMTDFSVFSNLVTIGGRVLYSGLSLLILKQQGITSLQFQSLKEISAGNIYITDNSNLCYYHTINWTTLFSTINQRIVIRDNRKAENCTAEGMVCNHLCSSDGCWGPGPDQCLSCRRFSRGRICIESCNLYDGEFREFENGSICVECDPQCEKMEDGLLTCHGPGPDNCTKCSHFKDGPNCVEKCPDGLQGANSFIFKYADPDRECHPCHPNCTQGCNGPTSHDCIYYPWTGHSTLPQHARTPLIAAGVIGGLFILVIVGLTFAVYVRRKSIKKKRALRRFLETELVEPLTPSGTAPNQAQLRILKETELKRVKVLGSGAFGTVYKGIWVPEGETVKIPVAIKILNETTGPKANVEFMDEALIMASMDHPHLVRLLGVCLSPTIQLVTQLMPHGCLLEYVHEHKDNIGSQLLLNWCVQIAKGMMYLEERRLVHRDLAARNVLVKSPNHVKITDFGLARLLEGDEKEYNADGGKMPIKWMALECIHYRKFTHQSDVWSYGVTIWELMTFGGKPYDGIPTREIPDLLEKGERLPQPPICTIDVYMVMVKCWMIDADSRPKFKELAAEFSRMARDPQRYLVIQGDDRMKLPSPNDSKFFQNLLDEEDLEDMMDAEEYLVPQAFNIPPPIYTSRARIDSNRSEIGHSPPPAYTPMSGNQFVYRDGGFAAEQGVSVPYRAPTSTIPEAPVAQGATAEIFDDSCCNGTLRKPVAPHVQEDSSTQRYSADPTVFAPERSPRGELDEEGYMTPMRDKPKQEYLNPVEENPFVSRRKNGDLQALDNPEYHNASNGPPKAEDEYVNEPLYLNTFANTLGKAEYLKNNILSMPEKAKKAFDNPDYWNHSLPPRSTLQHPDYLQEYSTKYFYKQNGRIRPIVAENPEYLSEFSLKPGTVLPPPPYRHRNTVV
T1 sequence (Q15303 26-1308): as above

`O=C(NC1CC1)C(Sc1nc2ccccc2c(=O)n1C1CCCC1)c1ccccc1` (stereo not shown) [EF-1] was tested. Which ERBB4/ERBB4 dimerization signal (3.125e-8 M) did it give?
Its ERBB4/ERBB4 dimerization signal is 0.

What about the ERBB4/ERBB4 dimerization signal (6.25e-8 M) of the same molecule?
Its ERBB4/ERBB4 dimerization signal is -1.6 and -0.07 and 2.169 and 1.573.

And the ERBB4/ERBB4 dimerization signal (1.25e-7 M)?
The ERBB4/ERBB4 dimerization signal was -0.55 and -0.15 and 2.599 and 0.9551.

And the ERBB4/ERBB4 dimerization signal (2.5e-7 M)?
The ERBB4/ERBB4 dimerization signal was -1.94 and 0.74 and 2.315 and -0.7582.

And the ERBB4/ERBB4 dimerization signal (5e-7 M)?
Its ERBB4/ERBB4 dimerization signal is -0.55 and 0.26 and 2.323 and -0.4275.

And the ERBB4/ERBB4 dimerization signal (1e-6 M)?
The ERBB4/ERBB4 dimerization signal was -2 and 0.47 and 4.362 and -0.05827.

And the ERBB4/ERBB4 dimerization signal (2e-6 M)?
The ERBB4/ERBB4 dimerization signal was 1.2 and 2.97 and 7.682 and 3.162.

What about the ERBB4/ERBB4 dimerization signal (4e-6 M) of the same molecule?
Its ERBB4/ERBB4 dimerization signal is 7.41 and 5.76 and 13.8923 and 7.932.

What about the ERBB4/ERBB4 dimerization signal (8e-6 M) of the same molecule?
The ERBB4/ERBB4 dimerization signal was 16.72 and 8.19 and 23.4633 and 9.465.

And the ERBB4/ERBB4 dimerization signal (1.6e-5 M)?
Its ERBB4/ERBB4 dimerization signal is 24.8 and 17.62 and 27.6207 and 19.8392.

What about the ERBB4/ERBB4 dimerization signal (3.2e-5 M) of the same molecule?
The ERBB4/ERBB4 dimerization signal was 30.57 and 22.84 and 33.2287 and 25.0905.

And the “Emax, maximum response relative to NRG1” value (% of the effect of NRG1)?
Its value is 27.9 ± 4.8%.

For `Cc1sc2nc(SC(C)C(=O)NCc3ccc4c(c3)OCO4)n(-c3ccccc3)c(=O)c2c1C` (stereo not shown) [NA-1], which “induction of ERBB4 dimerization (in words)” value is on record?
The value was “did not activate ERBB4”.

What about the ERBB4/ERBB4 dimerization signal (3.125e-8 M) of the same molecule?
The ERBB4/ERBB4 dimerization signal was 0.

What about the ERBB4/ERBB4 dimerization signal (1.25e-7 M) of the same molecule?
The ERBB4/ERBB4 dimerization signal was -1.9 and -5.83.

And the ERBB4/ERBB4 dimerization signal (5e-7 M)?
The ERBB4/ERBB4 dimerization signal was -1.92 and -5.07.

And the ERBB4/ERBB4 dimerization signal (2e-6 M)?
The ERBB4/ERBB4 dimerization signal was -1.85 and -3.89.

And the ERBB4/ERBB4 dimerization signal (8e-6 M)?
Its ERBB4/ERBB4 dimerization signal is -1.52 and -5.16.

What about the ERBB4/ERBB4 dimerization signal (3.2e-5 M) of the same molecule?
Its ERBB4/ERBB4 dimerization signal is -1.83 and -4.37.
